Here are results for 24 molecules from patent US6281214A, “Biphenyl derivatives” (Eisai Co., Ltd, priority 1994, dated 2001).

What all share (set-up): species or system SD rats
One experiment has as its target T1, serotonin S2 receptor (Rattus norvegicus, UniProt P14842).
T1 construct: The receptor fraction prepared from the cortex was molten and suspended; from tissue; host or cells: cerebral cortex of SD rats (membrane fraction)
The experiment is described as follows: serotonin S2 receptor binding test ([3H] Ketanserin Binding Test). As to conditions: 1 nM [3H] Ketanserin, rat cortex, 37° C., 15 minutes. Here is the method:
(§1) The compounds of the present invention were subjected to each of serotonin S2 receptor binding test, dopamine D2 receptor binding test and adrenergic α1 receptor binding test.
(§2) The following reagents were used in this test.
(§3) These reagents and samples were each dissolved in 10% ethanol before use. Among them, water-insoluble compounds were each dissolved in ethanol and the obtained solution was diluted with distilled water to an ethanol concentration of 10%. Further, Methylsergide maleate was used in a state dissolved in distilled water.
(§4) SD rats aged 6 to 8 weeks were used.
(§5) SD rats were each slaughtered with a guillotine to extirpate its cerebrum. The cortex and corpus striatum were separated from the cerebrum. The former was used in serotonin S2 receptor binding test and adrenergic α1, receptor binding test, while the latter was used in dopamine D2 receptor binding test.
(§6) The cortex was homogenized in a 0.32 M sucrose solution in an amount ten times the wet weight of the cortex by the use of a teflon glass homogenizer and the resulting mixture was centrifuged at 10,000×G for 20 minutes. The obtained sediment was suspended in 50 mM Tris hydrochloride (pH 7.4) in an amount ten times the initial wet weight of the cortex by the use of a histocothrom, and the obtained suspension was centrifuged at 10,000×G for 20 minutes. This operation was repeated twice. The obtained sediment was suspended in 50 mM Tris hydrochloride (pH 7.4) in an amount 20 times the initial wet weight of the cortex by the use of a histocothrom. The suspension thus prepared was used as a receptor fraction. This receptor fraction was stored at -80° C. until use.
4. [^3 ] Ketanserin Binding Test
The receptor fraction prepared from the cortex was molten and suspended by the use of a histocothrom. The resulting suspension was incubated together with 1 nM-[^3 H] Ketanserin at 37° C. for 15 minutes. The resulting reaction system was filtered through a Whatman GF/B glass filter with an MR-30R type cell harvester mfd. by Blandel. The resulting filter was washed twice with 5 ml of 50 mM Tris hydrochloride (ph 7.4) cooled with ice and the radioactivity of the Ketanserin bound the receptor was determined by the use of a liquid scintillation counter with 5 ml of ACS II. The binding detected in the presence of […] of Methylsergide was regarded as nonspecific binding.
(§7) Each IC50 value was calculated by the probit method and each Ki value was determined by the following formula: [formula]
(§8) In the above formula, C represents the concentration of radioligand, and Kd represents the affinity of radioligand for the receptor as determined by the Scatchard analysis.

For another experiment, the target named is T2, dopamine D2 receptor (Rattus norvegicus, UniProt P61169).
T2 construct: the receptor fraction prepared from the corpus striatum was molten and suspended; from tissue; host or cells: corpus striatum of SD rats (membrane fraction)
Nature of the experiment: dopamine D2 receptor binding test ([3H] Spiperone Binding Test). As to conditions: 1 nM [3H] Spiperone, rat corpus striatum, room temperature, 60 minutes. As to the method: as §1, §2, §3, §4, §5
On the other hand, the corpus striatum was homogenized in a 0.32 M sucrose solution in an amount ten times the wet weight of the corpus striatum by the use of a teflon glass homogenizer and the obtained mixture was centrifuged at 1,000×G for 20 minutes. The obtained supernatant was centrifuged at 10,000×G for 20 minutes. The obtained sediments were suspended together in 50 mM Tris hydrochloride (pH 7.4) in an amount ten times the initial wet weight of the corpus striatum by the use of a histocothrom, and the obtained suspension was centrifuged at 10,000×G for 20 minutes. This operation was repeated thrice. The resulting sediment was suspended in 50 mM Krebs-Tris (pH 7.4) in an amount 100 times the initial wet weight of the corpus striatum by the use of a histocothrom. The obtained suspension was used as a receptor fraction. This receptor fraction was stored at -80° C. until use.
as §7, §8
5. [^3 H] Spiperone Binding Test
This test was conducted in the same manner as that of the binding test of [^3 H] Ketanserin except that the receptor fraction prepared from the corpus striatum was molten and suspended with a histocothrom, and the obtained suspension was incubated together with 1 nM-[^3 H], Spiperone at room temperature for 60 minutes and that the binding detected in the presence of 10 μl of Spiperone was regarded as nonspecific binding.

In a further experiment the target is adrenergic α1 receptor. Nature of the experiment: adrenergic α1 receptor binding test ([3H] Prazosin Binding Test). The following applies: 1 nM [3H] Prazosin, rat cortex, room temperature, 60 minutes. Here is the method: as §1, §2, §3, §4, §5, §6, §7, §8
6. [^3 H] Prazosin Binding Test
This test was conducted in the same manner as that of the binding test of [^3 H] Ketanserin except that the receptor fraction prepared from the cortex was molten and suspended with a histocothrom, and the obtained suspension was incubated together with 1 nM-[^3 H] Prazosin at room temperature for 60 minutes and that the binding detected in the presence of 10 μl of Phentolamine was regarded as nonspecific binding.

Setting [1] is: read-out: Ki value, dopamine D2 receptor.

pKi: −log10 of the molar value. Like-named read-outs stand apart in the source and are kept apart here.

T1 sequence (P14842 whole entry): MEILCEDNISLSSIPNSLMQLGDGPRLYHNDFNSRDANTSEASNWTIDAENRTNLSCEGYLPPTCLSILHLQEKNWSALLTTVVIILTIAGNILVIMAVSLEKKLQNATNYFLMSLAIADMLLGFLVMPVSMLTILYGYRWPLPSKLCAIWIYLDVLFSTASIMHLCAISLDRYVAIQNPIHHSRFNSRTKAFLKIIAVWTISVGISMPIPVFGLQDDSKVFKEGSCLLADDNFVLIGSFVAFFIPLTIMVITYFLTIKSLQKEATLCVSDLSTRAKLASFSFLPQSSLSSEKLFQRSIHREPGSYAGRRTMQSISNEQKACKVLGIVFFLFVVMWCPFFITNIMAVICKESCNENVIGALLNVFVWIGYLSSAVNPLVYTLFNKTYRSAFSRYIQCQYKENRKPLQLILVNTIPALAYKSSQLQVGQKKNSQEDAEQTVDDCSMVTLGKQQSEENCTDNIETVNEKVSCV
T2 sequence (P61169 whole entry): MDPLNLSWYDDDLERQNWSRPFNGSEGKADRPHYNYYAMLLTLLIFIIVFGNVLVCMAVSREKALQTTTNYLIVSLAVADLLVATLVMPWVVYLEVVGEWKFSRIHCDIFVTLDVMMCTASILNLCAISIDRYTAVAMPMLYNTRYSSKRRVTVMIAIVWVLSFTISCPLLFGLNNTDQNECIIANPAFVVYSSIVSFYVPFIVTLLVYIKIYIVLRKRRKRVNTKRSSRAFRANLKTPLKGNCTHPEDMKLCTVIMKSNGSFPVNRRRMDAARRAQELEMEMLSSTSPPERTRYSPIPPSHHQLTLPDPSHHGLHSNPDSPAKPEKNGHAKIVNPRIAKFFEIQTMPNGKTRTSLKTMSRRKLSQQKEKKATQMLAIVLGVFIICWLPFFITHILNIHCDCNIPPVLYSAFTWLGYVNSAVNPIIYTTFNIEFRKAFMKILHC

As to `CCC(F)c1cc(N2CCN(CCc3ccccn3)CC2)cc(-c2ccccc2C#N)c1Cl` (stereo not drawn) [Example 214, 1-[2-(2-Pyridyl)ethyl]-4-[3-(2-cyanophenyl)-4-chloro-5-(1-fluoropropyl)]phenylpiperazine], the values for the pKi on serotonin S2 receptor, at dopamine D2 receptor (setting [1]) and at adrenergic α1 receptor were 8.42, 8.29 and 7.29, respectively.

Take `CCN1CCN(c2cc(-c3ccc(F)cc3)c(OC)c(S(=O)(=O)CC)c2)CC1` [Example 40]: the results for the pKi at serotonin S2 receptor, on dopamine D2 receptor (setting [1]) and on adrenergic α1 receptor were 8.44, 8.03 and less than 6.00, respectively.

Regarding `CCN1CCN(c2cc(C#N)c(OC)c(-c3ccccc3)c2)CC1` [Example 89, 1-Ethyl-4-(3-phenyl-4-methoxy-5-cyano)phenylpiperazine], the pKi is 6.51 at serotonin S2 receptor; 7.35 on dopamine D2 receptor (Ki value, dopamine D2 receptor); less than 6.00 on adrenergic α1 receptor.

In the case of `CCN1CCN(c2cc(NS(=O)(=O)CC(F)(F)F)c(Cl)c(-c3ccccc3C)c2)CC1` [Example 136], the negative logarithm of the Ki (pKi) on serotonin S2 receptor was 7.05; at dopamine D2 receptor (setting [1]), 7.85; on adrenergic α1 receptor it was 6.33.

For the molecule `CCCNS(=O)(=O)c1cc(N2CCN(CC)CC2)cc(-c2ccccc2C)c1Cl` [Example 161, 1-Ethyl-4-[3-(2-tolyl)-4-chloro-5-propylaminosulfonyl]phenylpiperazine], the results for the negative-log Ki (pKi) at serotonin S2 receptor, at dopamine D2 receptor (setting [1]) and at adrenergic α1 receptor were 7.65, 8.01 and 6.11, respectively.

Consider `CCCc1cc(N2CCN(CC)CC2)cc(-c2ccc(F)cc2F)c1OC` [Example 91, 1-Ethyl-4-[3-(2,4-difluorophenyl)-4-methoxy-5-propyl]phenylpiperazine], for which the pKi at serotonin S2 receptor was 7.43; at dopamine D2 receptor (setting [1]), 8.13; at adrenergic α1 receptor, 6.49.

On to `CCN1CCN(c2cc(COCC3CC3)c(Cl)c(-c3ccccc3C)c2)CC1` [Example 176, 1-Ethyl-4-[3-(2-tolyl)-4-chloro-5-cyclopropylmethoxymethyl]phenylpiperazine], for which the negative logarithm of the Ki (pKi) at serotonin S2 receptor is 6.75; on dopamine D2 receptor (setting [1]), less than 7.00; on adrenergic α1 receptor, less than 6.00.

Turning to `C=CCCC(F)c1cc(N2CCN(CC)CC2)cc(-c2ccccc2C)c1Cl` (stereo not drawn) [Example 160, 1-Ethyl-4-[3-(2-tolyl)-4-chloro-5-(1-fluoro-4-pentenyl)]phenylpiperazine], the pKi on serotonin S2 receptor was 7.83; on dopamine D2 receptor (setting [1]) it was 7.87; on adrenergic α1 receptor, less than 6.00.

In the case of `CCN1CCN(c2cc(-c3ccccc3)c(F)c(S(=O)(=O)CC)c2)CC1` [Example 149, 1-Ethyl-4-(3-phenyl-4-fluoro-5-ethanesulfonyl)phenylpiperazine], the pKi on serotonin S2 receptor is 7.94; at dopamine D2 receptor (setting [1]) it was 8.20; at adrenergic α1 receptor it was 7.57.

Take `CCCS(=O)(=O)Nc1cc(N2CCN(C)CC2)cc(-c2ccccc2C)c1Cl` [Example 29, 1-Methyl-4-[3-(2-tolyl)-4-chloro-5-propanesulfonylamino]phenylpiperazine]: the negative logarithm of the Ki (pKi) at serotonin S2 receptor was 8.31; at dopamine D2 receptor (setting [1]), 8.92; at adrenergic α1 receptor it was 7.30.

As for `CCN1CCN(c2cc(CO)c(OC)c(-c3ccccc3)c2)CC1` [Example 102, 1-Ethyl-4-(3-phenyl-4-methoxy-5-hydroxymethyl)phenylpiperazine], the negative-log Ki (pKi) at serotonin S2 receptor is less than 6.00; on dopamine D2 receptor (setting [1]), less than 6.00; at adrenergic α1 receptor, 6.28.

`CCCc1cc(N2CCN(CC)CC2)cc(-c2ccccc2OC)c1OC` [Example 132]: the pKi at serotonin S2 receptor was 6.41; at dopamine D2 receptor (setting [1]) it was 6.55; at adrenergic α1 receptor, less than 6.00.

`CCC(F)c1cc(N2CCN(C)CC2)cc(-c2ccccc2C)c1Cl` (stereo not drawn) [Example 25, 1-Methyl-4-[3-(2-tolyl)-4-chloro-5-(1-fluoropropyl)]phenylpiperazine]: the pKi on serotonin S2 receptor is 8.08; at dopamine D2 receptor (setting [1]), 8.62; on adrenergic α1 receptor, less than 6.00.

As to `CCC(=O)c1cc(-c2ccccc2)cc(N2CCN(CC)CC2)c1` [Example 130, 1-Ethyl-4-(3-phenyl-5-propionyl)phenylpiperazine], the negative logarithm of the Ki (pKi) on serotonin S2 receptor is 7.24; on dopamine D2 receptor (Ki value, dopamine D2 receptor) it was 7.53; at adrenergic α1 receptor, 7.15.

In the case of `CCN1CCN(c2cc(-c3ccc(F)cc3)c(OC)c(C(C)C)c2)CC1` [Example 78, 1Ethyl-4-[3-(4-fluorophenyl)-4-methoxy-5-isopropyl]phenylpiperazine], the pKi on serotonin S2 receptor was 7.48; on dopamine D2 receptor (setting [1]) it was 8.37; on adrenergic α1 receptor, 7.13.

Regarding `CCN1CCN(c2cc(-c3ccccc3C)c(Cl)c(C3SCCCS3)c2)CC1` [Example 190, 1-Ethyl-4-[3-(2-tolyl)-4-chloro-5-(1,3-dithian-2-yl)phenylpiperazinepropanedithio]phenylpiperazine], the pKi at serotonin S2 receptor was 7.73; on dopamine D2 receptor (setting [1]), 7.39; at adrenergic α1 receptor it was less than 6.00.

`CCN1CCN(c2cc(NS(=O)(=O)CC)c(Cl)c(-c3ccccc3C)c2)CC1` [Example 18, 1-Ethyl-4-[3-(2-tolyl)-4-chloro-5-ethanesulfonylamino]phenylpiperazine]: the results for the negative-log Ki (pKi) on serotonin S2 receptor, on dopamine D2 receptor (setting [1]) and at adrenergic α1 receptor were 8.21, 9.12 and 7.27, respectively.

As for `CCC(F)c1cc(N2CCN(CC)CC2)cc(-c2ccccc2C)c1Cl` (stereo not drawn) [Example 131, 1-Ethyl-4-[3-(2-tolyl)-4-chloro-5-(1-fluoropropyl)]phenylpiperazine], the negative logarithm of the Ki (pKi) was 7.68 at serotonin S2 receptor, 8.48 on dopamine D2 receptor (setting [1]) and less than 6.00 on adrenergic α1 receptor.

For `CCN1CCN(c2cc(-c3ccccc3)c(OC)c(S(=O)(=O)CCC#N)c2)CC1` [Example 183, 1-Ethyl-4-[3-phenyl-4-methoxy-5-(2-cycanoethylsulfonyl)]phenylpiperazine], the negative-log Ki (pKi) was 7.09 at serotonin S2 receptor, 6.78 on dopamine D2 receptor (setting [1]) and less than 6.00 on adrenergic α1 receptor.

For the molecule `CCC(O)c1cc(N2CCN(CC)CC2)cc(-c2ccccc2)c1Cl` (stereo not drawn) [Example 138, 1Ethyl-4-[3-phenyl-4-chloro-5-(1-hydroxypropyl)]phenylpiperazine], the results for the pKi at serotonin S2 receptor, at dopamine D2 receptor (setting [1]) and at adrenergic α1 receptor were 7.60, 8.54 and 8.03, respectively.

For the molecule `CCCCS(=O)(=O)Nc1cc(N2CCN(CC)CC2)cc(-c2ccccc2C)c1Cl` [Example 19, 1-Ethyl-4-[3-(2-tolyl)-4-chloro-5-butanesulfonylamino]phenylpiperazine], the pKi on serotonin S2 receptor is 8.71; on dopamine D2 receptor (setting [1]) it was 9.19; on adrenergic α1 receptor, 7.09.

For `CCN1CCN(c2cc(-c3ccccc3C)c(Cl)c(C(F)(F)CC)c2)CC1` [Example 55, 1-Ethyl-4-[3-(2-tolyl)-4-chloro-5-(1,1-difluoropropyl)]phenylpiperazine], the pKi at serotonin S2 receptor was 6.95; at dopamine D2 receptor (setting [1]), 8.51; at adrenergic α1 receptor it was less than 6.00.

With `CCN1CCN(c2cc(CCCC#N)c(OC)c(-c3ccccc3)c2)CC1` [Example 71, 1-Ethyl-4-[3-phenyl-4-methoxy-5-(3-cyanopropyl)]phenylpiperazine], the negative-log Ki (pKi) was 7.04 at serotonin S2 receptor, 7.83 on dopamine D2 receptor (setting [1]) and 6.88 at adrenergic α1 receptor.

With `CCCS(=O)(=O)c1cc(N2CCN(CC)CC2)cc(-c2ccccc2)c1Cl` [Example 191], the negative logarithm of the Ki (pKi) was 8.42 on serotonin S2 receptor, 8.78 at dopamine D2 receptor (setting [1]) and 7.67 on adrenergic α1 receptor.
